Our source for the IC50 values is patent publication USRE47193E1, “Selectively substituted quinoline compounds” (EISAI R&D MANAGEMENT CO., LTD., priority 2013, dated 2019).

Where two headings read alike, the source gives them in different places. Some results are limits rather than exact numbers.

One assay addresses T1, Human TLR4 (Homo sapiens, UniProt O00206).
T1 construct: stably and individually express human TLR4, TLR7 or TLR9 full-length ORF cDNAs; expressed in transfected cells; host or cells: HEK-293 (ATCC) with ELAM-1 NF-kappaB luciferase reporter
Briefly: HEK-293 human TLR4 NF-kappaB luciferase reporter assay (LPS). The settings on record: ligand LPS, analyte NFkB-luciferase. In kind it is cell-based. The procedure: To identify potent and selective TLR7/8 compounds, analogs were initially screened across a cell-based panel of human TLR4, TLR7, and TLR9 reporter lines (see Pharmacology Materials and Methods for more details). […] Certain compounds were advanced into the short-term in vivo (STIV) assay to determine dose-dependent activity and duration-of-action against mouse TLR7 (see Pharmacology Materials and Methods for more details). Select compounds were then evaluated for impact in one or more of the following mouse lupus disease models: BXSB-Yaa, NZBx-NZW, and Pristane DBA/1.
(§1) HEK-293 cells (ATCC) were engineered to stably express a NF-kappaB transcription factor inducible E-selectin (ELAM-1) luciferase reporter derived from the plasmid pGL3 (Promega) containing base pairs −2241 bp to −254 bp from the promoter of the human E-selectin gene (Accession No. NM_000450). These cells were then subsequently engineered to stably and individually express human TLR4, TLR7 or TLR9 full-length ORF cDNAs. Human TLR4 cDNA (Accession No. NM_138554) was cloned into pcDNA 3.0 expression vector (Invitrogen). TLR4 transfected cells were also engineered to express human MD-2 co-receptor [MD-2 cDNA (Accession No. NM_015364) was cloned into the pEF-BOS vector] and were supplemented with 10 nM soluble CD14 (R&D Systems) in the media to optimize LPS responsiveness. […]
Background: Reporter assays use an easily measured gene product as a stand-in for the process of interest.

Another assay deals with T2, mouse TLR7 (Mus musculus, UniProt P58681).
T2 sequence (P58681 27-1050): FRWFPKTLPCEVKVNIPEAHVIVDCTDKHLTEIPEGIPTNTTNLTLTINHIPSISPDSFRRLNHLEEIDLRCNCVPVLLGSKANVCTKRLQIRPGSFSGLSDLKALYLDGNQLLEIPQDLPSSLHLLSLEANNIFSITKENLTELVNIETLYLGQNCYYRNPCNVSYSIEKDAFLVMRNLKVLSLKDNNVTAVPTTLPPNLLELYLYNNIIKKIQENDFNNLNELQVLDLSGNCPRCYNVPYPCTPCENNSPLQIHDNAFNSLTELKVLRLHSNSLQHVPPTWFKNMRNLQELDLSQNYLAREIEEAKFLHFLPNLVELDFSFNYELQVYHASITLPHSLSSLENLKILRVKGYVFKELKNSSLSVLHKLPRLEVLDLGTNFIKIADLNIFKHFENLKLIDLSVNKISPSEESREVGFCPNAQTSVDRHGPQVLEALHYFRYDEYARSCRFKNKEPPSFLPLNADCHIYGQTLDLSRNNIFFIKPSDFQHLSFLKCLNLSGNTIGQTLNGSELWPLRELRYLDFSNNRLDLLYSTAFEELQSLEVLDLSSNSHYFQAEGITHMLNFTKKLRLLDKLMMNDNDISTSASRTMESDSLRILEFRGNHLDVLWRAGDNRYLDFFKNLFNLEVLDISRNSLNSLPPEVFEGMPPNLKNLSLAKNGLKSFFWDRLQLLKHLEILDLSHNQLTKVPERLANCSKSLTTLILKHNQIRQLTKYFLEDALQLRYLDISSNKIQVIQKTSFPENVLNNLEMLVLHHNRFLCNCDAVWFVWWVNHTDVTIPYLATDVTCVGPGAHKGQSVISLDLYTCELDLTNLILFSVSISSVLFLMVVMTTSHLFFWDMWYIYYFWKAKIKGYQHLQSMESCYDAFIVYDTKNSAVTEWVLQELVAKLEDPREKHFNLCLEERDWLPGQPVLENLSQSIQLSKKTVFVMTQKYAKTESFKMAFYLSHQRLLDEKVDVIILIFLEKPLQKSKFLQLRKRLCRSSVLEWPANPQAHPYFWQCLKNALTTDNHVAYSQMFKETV
Briefly: HEK-293 mouse TLR7 NF-kappaB luciferase reporter assay (CL097). In kind it is cell-based. Particulars: HEK-mTLR7, average of three tests. As to the method:
Effects on mouse TLR7 were also compared. Cells were stimulated overnight with TLR7/8 agonist CL097 at pre-determined ED70-80: 3 ug/ml for HEK-hTLR7, 1.5 ug/ml for HEK-mTLR7 and 12 ug/ml for HEK-hTLR8, before reading luminescence intensity. Three tests were performed and IC50 value was determined using Graphpad Prism 6 nonlinear regression curve fit.
as §1, with “responsiveness. Human TLR9 cDNA (Accession No. NM_017442) was cloned into the pBluescript II KS vector (Agilent). Human TLR7 cDNA (Accession No. NM_016562) was obtained from OriGene.” for “responsiveness.”

T1 sequence (O00206 24-839): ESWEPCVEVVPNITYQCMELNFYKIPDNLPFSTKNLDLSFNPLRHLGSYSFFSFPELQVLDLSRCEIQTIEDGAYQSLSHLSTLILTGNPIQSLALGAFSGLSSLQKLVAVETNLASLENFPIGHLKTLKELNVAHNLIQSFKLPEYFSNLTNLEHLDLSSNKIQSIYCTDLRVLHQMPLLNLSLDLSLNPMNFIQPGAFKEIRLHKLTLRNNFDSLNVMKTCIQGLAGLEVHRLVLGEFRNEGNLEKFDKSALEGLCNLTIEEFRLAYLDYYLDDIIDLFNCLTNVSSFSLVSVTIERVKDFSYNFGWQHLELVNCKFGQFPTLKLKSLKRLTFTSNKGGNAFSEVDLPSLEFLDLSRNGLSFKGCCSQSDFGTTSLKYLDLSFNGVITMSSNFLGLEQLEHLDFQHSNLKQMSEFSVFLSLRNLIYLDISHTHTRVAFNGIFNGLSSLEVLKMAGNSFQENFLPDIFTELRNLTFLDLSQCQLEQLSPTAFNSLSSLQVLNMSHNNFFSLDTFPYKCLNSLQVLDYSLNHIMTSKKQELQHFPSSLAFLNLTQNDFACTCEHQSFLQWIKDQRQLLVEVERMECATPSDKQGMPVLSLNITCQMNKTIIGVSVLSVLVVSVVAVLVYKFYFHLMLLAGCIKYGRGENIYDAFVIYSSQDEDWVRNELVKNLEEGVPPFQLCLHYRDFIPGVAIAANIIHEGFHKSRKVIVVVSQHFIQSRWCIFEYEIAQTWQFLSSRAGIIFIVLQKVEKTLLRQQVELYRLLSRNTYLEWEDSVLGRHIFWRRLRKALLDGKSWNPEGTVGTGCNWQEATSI
T1 sequence (Q9Y6Y9 19-160 partner): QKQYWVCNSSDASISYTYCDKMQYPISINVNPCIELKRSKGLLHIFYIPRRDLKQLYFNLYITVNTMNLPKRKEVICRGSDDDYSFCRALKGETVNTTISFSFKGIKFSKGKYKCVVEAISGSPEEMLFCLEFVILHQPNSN

With `C[C@@H]1CN(c2ccc(C#N)c3ncccc23)C[C@H](C(=O)N[C@H]2CNC[C@H]2F)O1.Cl` [ER-899742, (2R,6R)-4-(8-cyanoquinolin-5-yl)-N-[(3S,4R)-4-fluoropyrrolidin-3-yl]-6-methylmorpholine-2-carboxamide hydrochloride], the results for the IC50 against Human TLR4 and on mouse TLR7 (IC50 average) were > 10 µM and 0.071 µM, respectively. For the compound `CCN(CCO)CCCC(C)Nc1ccnc2cc(Cl)ccc12` (stereo not drawn) [HCQ, hydroxychloroquine, reference compound], on mouse TLR7 (read-out: IC50 average), the IC50 – broadly, the point on the concentration scale where inhibition reaches its midpoint – was 14.1 µM.
